Several values for one entry are separate records, joined by “and”; a condition that tells them apart may be missing. Equal entries are not always repeated. Entries after “also recorded” stand apart in the source; their conditions may differ.
Columns and labels:
[1] = system: HIV-1 RT mutant resistance test vector M41L-T69SSA-T215Y-RTV; experiment: Phenotypic susceptibility assay, site directed RTV M41L+T69SSA+T215Y; format: cell-based; details: for Average fold reduction in susceptibility: RTV with 41 + 69 + 215 (M41L, T69SSA, T215Y), 2 replicates; for effect on susceptibility (words): RTV with M41L+T69SSA+T215Y
Protocol: (§1) Resistance tests were carried out with resistance test vectors using two host cell types. Resistance test vector viral particles were produced by a first host cell (the resistance test vector host cell) that was prepared by transfecting a packaging host cell with the resistance test vector and the packaging expression vector. The resistance test vector viral particles were then used to infect a second host cell (the target host cell) in which the expression of the indicator gene is measured.
(§2) The resistance test vectors containing a functional luciferase gene cassette were constructed and host cells were transfected with the resistance test vector DNA. The resistant test vectors contained patient-derived reverse transcriptase and protease sequences that were either susceptible or resistant to the antiretroviral agents, such as nucleoside reverse transcriptase inhibitors, non-nucleoside reverse transcriptase inhibitors and protease inhibitors. The resistance test vector viral particles produced by transfecting the resistance test vector DNA into host cells, either in the presence or absence of protease inhibitors, were used to infect target host cells grown either in the absence of NRTI or NNRTI or In the presence of increasing concentrations of the drug. The amount of luciferase activIty produced in infected target host cells in the presence of drug was compared to the amount of luciferase produced in infected target host cells in the absence of drug. Drug resistance was measured as the amount of drug required to inhibit by 50% the luciferase activity detected in the absence of drug (Inhibitory concentration 50%, IC50). The IC50 values were determined by plotting percent drug inhibition vs. log 10 drug concentration.
Host cells were seeded in 10-cm-diameter dishes and were transfected several days after plating with resistance test vector plasmid DNA and the envelope expression vector. Transfections were performed using a calcium-phosphate precipitation procedure. The cell culture media containing the DNA precipitate was replaced with fresh medium, from one to 24 hours, after transfection. Cell culture media containing resistance test vector viral particles was harvested one to four days after transfection and was passed through a […] filter before being stored at −80° C. HIV capsid protein (p24) levels in the harvested cell culture media were determined by an EIA method as described by the manufacturer (SIAC; Frederick, Md.). Before infection, target cells (293 and 293/T) were plated in cell culture media. Control infections were performed using cell culture media from mock transfections (no DNA) or transfections containing the resistance test vector plasmid DNA without the envelope expression plasmid. One to three or more days after infectIon the media was removed and cell lysis buffer (Promega) was added to each well. Cell lysates were assayed for luciferase activity (FIG. 3). The inhibitory effect of the drug was determined using the following equation:
% luciferase inhibition=1−(RLUluc[drug]÷RLUluc)×100
where RLUluc [drug] is the relative light unit of luciferase activity in infected cells in the presence of drug and RLUluc is the Relative Light Unit of luciferase activity in infected cells in the absence of drug. IC50 values were obtained from the sigmoidal curves that were generated from the data by plotting the percent inhibition of luciferase activity vs. the log 10 drug concentration. The drug inhibition curves are shown in (FIG. 3).
Genotypic changes that are observed to correlate with changes in phenotypic patterns of drug susceptibility are evaluated by construction of resistance test vectors containing the specific mutation on a defined, wild-type (drug susceptible) genetic background. Mutations may be incorporated alone and/or in combination with other known drug resistance mutations that are thought to modulate the susceptibility of HIV to a certain drug or class of drugs. […]

[2] = system: patient RTV-136, RTV-240, RTV-955 and RTV-960 (A62V, V75I, F77L, F116Y, Q151M); experiment: Phenotypic susceptibility assay, patient isolates with multi-NRTI resistance mutations; format: cell-based, HIV-1; details: for susceptibility compared to wild-type control RTV: patient RTV pools with MDR mutations
Protocol: In these experiments patient-derived segment(s) corresponding to the HIV protease and reverse transcriptase coding regions were either patient-derived segments amplified by the reverse transcription-polymerase chain reaction method (RT-PCR) using viral RNA isolated from viral particles present in the serum of HIV-infected individuals or were mutants of wild type HIV-1 made by site directed mutagenesis of a parental clone of resistance test vector DNA. Isolation of viral RNA was performed using standard procedures (e.g. RNAgents Total RNA Isolation System, Promega, Madison Wis. or RNAzol, Tel-Test, Friendswood, Tex.). The RT-PCR protocol was divided into two steps. A retroviral reverse transcriptase [e.g. Moloney MuLV reverse transcriptase (Roche Molecular Systems, Inc., Branchburg, N.J.), or avian myeloblastosis virus (AMV) reverse transcriptase, (Boehringer Mannheim, Indianapolis, Ind.)] was used to copy viral RNA into cDNA. The cDNA was then amplified using a thermostable DNA polymerase [e.g. Taq (Roche Molecular Systems, Inc., Branchburg, N.J.), Tth (Roche Molecular Systems, Inc., Branchburg, N.J.), PrimeZyme (isolated from Thermus brockianus, Biometra, Gottingen, Germany)] or a combination of thermostable polymerases as described for the performance of “long PCR” (Barnes, W. M., (1994) Proc. Natl. Acad. Sci, USA 91, 2216-2220) [e.g. Expand High Fidelity PCR System (Taq+Pwo), (Boehringer Mannheim. Indianapolis, Ind.) OR GeneAmp XL PCR kit (Tth+Vent), (Roche Molecular Systems, Inc., Branchburg, N.J.)].
Resistance test vectors incorporating the “test” patient-derived segments were constructed as described in PCT International Application No. PCT/US97/01609, filed Jan. 29, 1997 using an amplified DNA product of 1.5 kB prepared by RT-PCR using viral RNA as a template and oligonucleotides PDSApa (1) and PDSAge (2) as primers, followed by digestion with ApaI and AgeI or the isoschizimer PINAI. To ensure that the plasmid DNA corresponding to the resultant resistance test vector comprises a representative sample of the HIV viral quasi-species present in the serum of a given patient, many (>100) independent E. coli transformants obtained in the construction of a given resistance test vector were pooled and used for the preparation of plasmid DNA.
as §1
as §2, with “The IC50 values were determined by plotting percent drug inhibition vs. log 10 drug concentration.” left out

[3] = system: HIV with RT Val75→Thr mutation; details: cited from earlier work
[4] = system: HIV with RT Met184→Val mutation; details: Met184→Val (M184V); cited from earlier work

SMILES: Cc1cn([C@H]2C=C[C@@H](CO)O2)c(=O)[nH]c1=O [d4T, stavudine]
- Average fold reduction in susceptibility [1]: 5 fold and 5.20 fold
- effect on susceptibility (words) [1]: significant decrease in both d4T and AZT susceptibility
- fold reduced susceptibility ([2]; four patient viruses with multi-NRTI resistance mutations (FIG. 4)): 4-12 fold
- susceptibility compared to wild-type control RTV [2]: decrease in susceptibility to d4T; also recorded: decreases in susceptibility
- fold increase in IC50 [3]: seven-fold

SMILES: O=c1[nH]cnc2c1ncn2[C@H]1CC[C@@H](CO)O1 [ddI, didanosine]
- Average fold reduction in susceptibility [1]: 2.02 fold
- susceptibility compared to wild-type control RTV [2]: decreases in susceptibility
- fold increase in IC50 / reduction in susceptibility [4]: four-fold to eight-fold
- susceptibility [3]: reduced susceptibility to both ddI and ddC

SMILES: Cc1cn([C@H]2C[C@H](N=[N+]=[N-])[C@@H](CO)O2)c(=O)[nH]c1=O [AZT, zidovudine]
- Average fold reduction in susceptibility [1]: 160 fold and 140 fold and 141.71 fold
- effect on susceptibility (words) [1]: significant decrease in both d4T and AZT susceptibility
- susceptibility compared to wild-type control RTV [2]: decreases in susceptibility

SMILES: Nc1ccn([C@H]2CC[C@@H](CO)O2)c(=O)n1 [ddC, zalcitabine]
- Average fold reduction in susceptibility [1]: 1.41 fold
- susceptibility compared to wild-type control RTV [2]: decreases in susceptibility
- fold increase in IC50 / reduction in susceptibility [4]: four-fold to eight-fold
- susceptibility [3]: reduced susceptibility to both ddI and ddC

SMILES: Nc1nc(NC2CC2)c2ncn([C@H]3C=C[C@@H](CO)C3)c2n1 [ABC, abacavir]
- Average fold reduction in susceptibility [1]: 9.69 fold
- susceptibility compared to wild-type control RTV [2]: decreases in susceptibility
- fold increase in IC50 / reduction in susceptibility [4]: 2-5 fold

— patent US6489098B1, “Means and methods for monitoring nucleoside reverse transcriptase inhibitor antiretroviral therapy and guiding therapeutic decisions in the treatment of HIV/AIDS” (ViroLogic, Inc., priority 1998, dated 2002)
